# Reference: US7138361B2, “Herbicidal heterocycles” (E. I. du Pont de Nemours and Company, priority 2000, dated 2006)
# Key:
# Assay in all cases: Test C preemergence
# Assay type in all cases: in vivo
# Nightshade [1] = conditions: Rate 250 g/ha, visual evaluation after 12 to 14 days
# [2] = test system: bermudagrass (Cynodon dactylon); conditions: for Plant response rating (0 to 100 where 0 is no effect and 100 is complete control), Bermudagrass: Rate 250 g/ha, visual evaluation after 12 to 14 days
# Method in brief: (§1)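 Preemergence: seeds sown then treated. Postemergence: plants 2–18 cm, 1- to 4-leaf. Both with surfactant-containing solvent formulation; visual injury scored 0–100 after 12–14 d.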
# [3] = test system: lambsquarters (Chenopodium album); conditions: for Plant response rating (0 to 100), Lambsquarters: Rate 250 g/ha, visual evaluation after 12 to 14 days
# Method in brief: as §1
# [4] = test system: goosegrass (Eleusine indica); conditions: for Plant response rating (0 to 100), Goosegrass: Rate 250 g/ha, visual evaluation after 12 to 14 days
# Method in brief: as §1
# Sunflower = test system: Sunflower
# [5] = test system: giant foxtail (Setaria faberii); conditions: for Plant response rating (0 to 100), Foxtail, Giant: Rate 250 g/ha, visual evaluation after 12 to 14 days
# Method in brief: as §1
# [6] = test system: johnsongrass (Sorghum halepense); conditions: for Plant response rating (0 to 100), Johnsongrass: Rate 250 g/ha, visual evaluation after 12 to 14 days
# Method in brief: as §1
# Nightshade [7] = test system: Nightshade
# [8] = test system: pigweed (Amaranthus retroflexus); conditions: for Plant response rating (0 to 100), Pigweed: Rate 250 g/ha, visual evaluation after 12 to 14 days
# Method in brief: as §1
# [9] = test system: cocklebur (Xanthium strumarium)
# Method in brief: as §1
# [10] = test system: morningglory (Ipomoea hederacea); conditions: for Plant response rating (0 to 100), Morningglory: Rate 250 g/ha, visual evaluation after 12 to 14 days
# Method in brief: as §1
# corn (Zea mays) = conditions: for Plant response rating (0 to 100), Corn: Rate 250 g/ha, visual evaluation after 12 to 14 days
# Method in brief: as §1
# [11] = test system: yellow nutsedge (Cyperus esculentus); conditions: for Plant response rating (0 to 100), Nutsedge: Rate 250 g/ha, visual evaluation after 12 to 14 days
# Method in brief: as §1
# soybean (Glycine max) = conditions: for Plant response rating (0 to 100), Soybean: Rate 250 g/ha, visual evaluation after 12 to 14 days
# Method in brief: as §1
# [12] = test system: Surinam grass (Brachiaria decumbens); conditions: for Plant response rating (0 to 100), Surinam grass: Rate 250 g/ha, visual evaluation after 12 to 14 days
# Method in brief: as §1
# [13] = test system: velvetleaf (Abutilon theophrasti); conditions: for Plant response rating (0 to 100), Velvetleaf: Rate 250 g/ha, visual evaluation after 12 to 14 days
# Method in brief: as §1
# kochia (Kochia scoparia) = conditions: for Plant response rating (0 to 100), Kochia: Rate 250 g/ha, visual evaluation after 12 to 14 days
# Method in brief: as §1
# [14] = test system: crabgrass (Digitaria sanguinalis); conditions: for Plant response rating (0 to 100), Crabgrass: Rate 250 g/ha, visual evaluation after 12 to 14 days
# Method in brief: as §1
# [15] = test system: common ragweed (Ambrosia elatior); conditions: for Plant response rating (0 to 100), Ragweed, Common: Rate 250 g/ha, visual evaluation after 12 to 14 days
# Method in brief: as §1
# [16] = test system: woolly cupgrass (Eriochloa villosa); conditions: for Plant response rating (0 to 100), Cupgrass, Woolly: Rate 250 g/ha, visual evaluation after 12 to 14 days
# Method in brief: as §1
# [17] = Preemergence, Rate 500 g/ha, scale 0 to 100
# [18] = Rate 62 g/ha, scale 0 to 100, 0 no effect, 100 complete control
# [19] = preemergence, Rate 125 g/ha, scale 0 to 100, 0 no effect, 100 complete control
# [20] = Rate 125 g/ha, scale 0 to 100, 0 no effect, 100 complete control
compound,measurement,setting,value
CCC(C)c1ccn(C2SCN(c3cccc(OC(F)(F)F)c3)C2=O)n1 (stereo not shown) [Compound 40],"Plant response rating (0 to 100), Nightshade",Nightshade [1],40
same,"Plant response rating, Bermudagrass",[2]; [17],100
same,"Plant response rating, Bermudagrass",[2]; [18],80
same,"Plant response rating (0 to 100 where 0 is no effect and 100 is complete control), Bermudagrass",[2]; preemergence,100
same,"Plant response rating, Bermudagrass",[2]; [19],100
same,"Plant response rating, Lambsquarters",[3]; [17],100
same,"Plant response rating, Lambsquarters",[3]; [18],100
same,"Plant response rating (0 to 100), Lambsquarters",[3]; preemergence,100
same,"Plant response rating, Lambsquarters",[3]; [19],100
same,"Plant response rating, Goosegrass",[4]; [17],100
same,"Plant response rating, Goosegrass",[4]; [18],90
same,"Plant response rating (0 to 100), Goosegrass",[4]; preemergence,100
same,"Plant response rating, Goosegrass",[4]; [19],100
same,"Plant response rating, Sunflower",Sunflower; [18],0
same,"Plant response rating, Sunflower","Sunflower; Rate 500 g/ha, scale 0 to 100",40
same,"Plant response rating, Foxtail, Giant",[5]; [17],100
same,"Plant response rating, Foxtail, Giant",[5]; [18],90
same,"Plant response rating (0 to 100), Foxtail, Giant",[5]; preemergence,100
same,"Plant response rating, Foxtail, Giant",[5]; [19],0
same,"Plant response rating, Johnsongrass",[6]; [17],100
same,"Plant response rating, Johnsongrass",[6]; [18],50
same,"Plant response rating (0 to 100), Johnsongrass",[6]; preemergence,100
same,"Plant response rating, Johnsongrass",[6]; [19],100
same,"Plant response rating, Nightshade",Nightshade [7]; [18],0
same,"Plant response rating, Nightshade",Nightshade [7]; [20],0
same,"Plant response rating, Nightshade","Nightshade [7]; Rate 500 g/ha, scale 0 to 100",70
same,"Plant response rating, Pigweed",[8]; [17],100
same,"Plant response rating, Pigweed",[8]; [18],0
same,"Plant response rating (0 to 100), Pigweed",[8]; preemergence,0
same,"Plant response rating, Pigweed",[8]; [19],100
same,"Plant response rating, Cocklebur",[9]; [17],60
same,"Plant response rating, Cocklebur",[9]; [18],20
same,"Plant response rating, Cocklebur",[9]; [19],20
same,"Plant response rating, Morningglory",[10]; [17],0
same,"Plant response rating, Morningglory",[10]; [18],0
same,"Plant response rating (0 to 100), Morningglory",[10]; preemergence,0
same,"Plant response rating, Morningglory",[10]; [19],0
same,"Plant response rating, Corn",corn (Zea mays); [17],90
same,"Plant response rating, Corn",corn (Zea mays); [18],0
same,"Plant response rating (0 to 100), Corn",corn (Zea mays); preemergence,50
same,"Plant response rating, Corn",corn (Zea mays); [19],20
same,"Plant response rating, Nutsedge",[11]; [17],60
same,"Plant response rating, Nutsedge",[11]; [18],0
same,"Plant response rating (0 to 100), Nutsedge",[11]; preemergence,50
same,"Plant response rating, Nutsedge",[11]; [19],0
same,"Plant response rating, Soybean",soybean (Glycine max); [17],40
same,"Plant response rating (0 to 100), Soybean",soybean (Glycine max); preemergence,40
same,"Plant response rating, Soybean",soybean (Glycine max); [19],20
same,"Plant response rating, Surinam grass",[12]; [17],100
same,"Plant response rating, Surinam grass",[12]; [18],0
same,"Plant response rating (0 to 100), Surinam grass",[12]; preemergence,90
same,"Plant response rating, Surinam grass",[12]; [19],80
same,"Plant response rating, Velvetleaf",[13]; [17],50
same,"Plant response rating, Velvetleaf",[13]; [18],0
same,"Plant response rating (0 to 100), Velvetleaf",[13]; preemergence,30
same,"Plant response rating, Velvetleaf",[13]; [19],0
same,"Plant response rating, Kochia",kochia (Kochia scoparia); [17],100
same,"Plant response rating, Kochia",kochia (Kochia scoparia); [18],60
same,"Plant response rating (0 to 100), Kochia",kochia (Kochia scoparia); preemergence,100
same,"Plant response rating, Kochia",kochia (Kochia scoparia); [19],90
same,"Plant response rating, Crabgrass",[14]; [17],100
same,"Plant response rating, Crabgrass",[14]; [18],100
same,"Plant response rating (0 to 100), Crabgrass",[14]; preemergence,100
same,"Plant response rating, Crabgrass",[14]; [19],100
same,"Plant response rating, Ragweed, Common",[15]; [17],70
same,"Plant response rating, Ragweed, Common",[15]; [18],0
same,"Plant response rating (0 to 100), Ragweed, Common",[15]; preemergence,30
same,"Plant response rating, Ragweed, Common",[15]; [19],0
same,"Plant response rating, Cupgrass, Woolly",[16]; [17],100
same,"Plant response rating, Cupgrass, Woolly",[16]; [18],60
same,"Plant response rating (0 to 100), Cupgrass, Woolly",[16]; preemergence,90
same,"Plant response rating, Cupgrass, Woolly",[16]; [19],90
CC(C)c1ccn(C2SCN(c3cccc(OC(F)F)c3)C2=O)n1 (stereo not shown) [Compound 44],"Plant response rating (0 to 100), Nightshade",Nightshade [1],0
same,"Plant response rating, Bermudagrass",[2]; [17],100
same,"Plant response rating, Bermudagrass",[2]; [18],90
same,"Plant response rating (0 to 100 where 0 is no effect and 100 is complete control), Bermudagrass",[2]; preemergence,100
same,"Plant response rating, Bermudagrass",[2]; [19],100
same,"Plant response rating, Lambsquarters",[3]; [17],100
same,"Plant response rating, Lambsquarters",[3]; [18],100
same,"Plant response rating (0 to 100), Lambsquarters",[3]; preemergence,100
same,"Plant response rating, Lambsquarters",[3]; [19],100
same,"Plant response rating, Goosegrass",[4]; [17],100
same,"Plant response rating, Goosegrass",[4]; [18],90
same,"Plant response rating (0 to 100), Goosegrass",[4]; preemergence,100
same,"Plant response rating, Goosegrass",[4]; [19],100
same,"Plant response rating, Sunflower",Sunflower; [18],0
same,"Plant response rating, Sunflower","Sunflower; Rate 500 g/ha, scale 0 to 100",30
same,"Plant response rating, Foxtail, Giant",[5]; [17],90
same,"Plant response rating, Foxtail, Giant",[5]; [18],0
same,"Plant response rating (0 to 100), Foxtail, Giant",[5]; preemergence,100
same,"Plant response rating, Foxtail, Giant",[5]; [19],100
same,"Plant response rating, Johnsongrass",[6]; [17],100
same,"Plant response rating, Johnsongrass",[6]; [18],0
same,"Plant response rating (0 to 100), Johnsongrass",[6]; preemergence,90
same,"Plant response rating, Johnsongrass",[6]; [19],60
same,"Plant response rating, Nightshade",Nightshade [7]; [18],0
same,"Plant response rating, Nightshade",Nightshade [7]; [20],0
same,"Plant response rating, Nightshade","Nightshade [7]; Rate 500 g/ha, scale 0 to 100",30
same,"Plant response rating, Pigweed",[8]; [17],100
same,"Plant response rating, Pigweed",[8]; [18],0
same,"Plant response rating (0 to 100), Pigweed",[8]; preemergence,20
same,"Plant response rating, Pigweed",[8]; [19],0
same,"Plant response rating, Cocklebur",[9]; [17],100
same,"Plant response rating (0 to 100), Cocklebur","[9]; preemergence, Rate 250 g/ha, visual evaluation after 12 to 14 days",30
same,"Plant response rating, Cocklebur",[9]; [19],0
same,"Plant response rating, Morningglory",[10]; [17],40
same,"Plant response rating, Morningglory",[10]; [18],0
same,"Plant response rating (0 to 100), Morningglory",[10]; preemergence,20
same,"Plant response rating, Morningglory",[10]; [19],0
same,"Plant response rating, Corn",corn (Zea mays); [17],70
same,"Plant response rating, Corn",corn (Zea mays); [18],0
same,"Plant response rating (0 to 100), Corn",corn (Zea mays); preemergence,0
same,"Plant response rating, Corn",corn (Zea mays); [19],0
same,"Plant response rating, Nutsedge",[11]; [17],100
same,"Plant response rating, Nutsedge",[11]; [18],0
same,"Plant response rating (0 to 100), Nutsedge",[11]; preemergence,60
same,"Plant response rating, Nutsedge",[11]; [19],30
same,"Plant response rating, Soybean",soybean (Glycine max); [17],30
same,"Plant response rating, Soybean",soybean (Glycine max); [18],0
same,"Plant response rating (0 to 100), Soybean",soybean (Glycine max); preemergence,30
same,"Plant response rating, Soybean",soybean (Glycine max); [19],0
same,"Plant response rating, Surinam grass",[12]; [17],90
same,"Plant response rating, Surinam grass",[12]; [18],0
same,"Plant response rating (0 to 100), Surinam grass",[12]; preemergence,80
same,"Plant response rating, Surinam grass",[12]; [19],80
same,"Plant response rating, Velvetleaf",[13]; [17],60
same,"Plant response rating, Velvetleaf",[13]; [18],0
same,"Plant response rating (0 to 100), Velvetleaf",[13]; preemergence,20
same,"Plant response rating, Velvetleaf",[13]; [19],0
same,"Plant response rating, Kochia",kochia (Kochia scoparia); [17],100
same,"Plant response rating, Kochia",kochia (Kochia scoparia); [18],70
same,"Plant response rating (0 to 100), Kochia",kochia (Kochia scoparia); preemergence,100
same,"Plant response rating, Kochia",kochia (Kochia scoparia); [19],100
same,"Plant response rating, Crabgrass",[14]; [17],100
same,"Plant response rating, Crabgrass",[14]; [18],100
same,"Plant response rating (0 to 100), Crabgrass",[14]; preemergence,100
same,"Plant response rating, Crabgrass",[14]; [19],100
same,"Plant response rating, Ragweed, Common",[15]; [17],50
same,"Plant response rating, Ragweed, Common",[15]; [18],0
same,"Plant response rating (0 to 100), Ragweed, Common",[15]; preemergence,50
same,"Plant response rating, Ragweed, Common",[15]; [19],0
same,"Plant response rating, Cupgrass, Woolly",[16]; [17],100
same,"Plant response rating, Cupgrass, Woolly",[16]; [18],30
same,"Plant response rating (0 to 100), Cupgrass, Woolly",[16]; preemergence,100
same,"Plant response rating, Cupgrass, Woolly",[16]; [19],90
